Assay results published in US20090062369A1, “USE OF SECRETORY PHOSPHOLIPASE A2 (SPLA2) INHIBITORS TO DECREASE SPLA2 LEVELS” (priority 2007, published 2009).

Tested on: serum sPLA2
Test: Effect of twice-a-day oral A-002 on serum sPLA2 levels in subjects with stable coronary artery disease (Example 6)
Type: in vivo, human
Description: The protocol for preparing standard curve, test, and quality control samples for use in the assay disclosed herein is set forth in Example 5. Samples are prepared according to this protocol, then loaded in duplicate onto a plate (Cayman catalog no. 485002 or equivalent) that has been pre-coated with a monoclonal sPLA2 antibody (“capture antibody”) that specifically binds sPLA2. In certain embodiments, the capture antibody may interact with a specific form of sPLA2, such as for example sPLA2 type IIA.
sPLA2 acetylcholinesterase:Fab′ conjugate (AChE:Fab′) (“conjugate”) (Cayman catalog no. 485000 or equivalent) is reconstituted in EIA buffer (Cayman catalog no. 400060 or equivalent). Cayman EIA buffer is 1M phosphate, pH 7.0, 1% BSA, 4M NaCl, 10 mM EDTA, and 0.1% sodium azide. Reconstituted conjugate is added to each well of the plate. The conjugate binds a different sPLA2 epitope than the capture antibody, allowing the capture antibody and the conjugate to form a “sandwich” that is immobilized on the plate. Excess reagents are washed away, and the plate is covered and incubated overnight at 2-8° C.
Prior to development, the wells are washed five to six times with wash buffer (Cayman catalog no. 400062 or equivalent). To develop the plate, Ellman's Reagent (Cayman catalog no. 400050 or equivalent) is reconstituted in water and added to each well according to manufacturer instructions. The reconstituted Ellman's Reagent must be used the same day it is prepared because it is unstable. Ellman's Reagent contains an AChE substrate. Specifically, Ellman's Reagent contains acetylthiocholine and 5,5′-dithio-bis-(2-nitrobenzoic acid). Hydrolysis of acetylthiocholine by acetylcholinesterase produces thiocholine, which reacts with 5,5′-dithio-bis-(2-nitrobenzoic acid) to produce 5-thio-2-nitrobenzoic acid. 5-thio-2-nitrobenzoic acid has a strong absorbance at 412 nm. The intensity of absorbance at this wavelength is directly proportional to the concentration of bound conjugate, which is in turn is directly proportional to the concentration of sPLA2 present (Absorbance a [AChE:Fab′ conjugate] α [sPLA2]). During the development step, the plate is shaken, preferably in the dark. In certain embodiments the development time for the assay is 0.5 to 3 hours, preferably 1 to 1.5 hours. At the end of the development period, the high sPLA2 standards should have greater yellow color development than the zero standards. Absorbance of each well is measured at 400-420 nm using a micro-well plate reader. In certain embodiments, absorbance is measured at about 405 nm.
Absorbance readings for duplicate wells are averaged, and the relative standard deviation and % CV are calculated. Standard curve data are used to generate a four parameter curve, and quality control and test samples are measured against the appropriate standard curve (i.e., the standard curve with the same serum content). In order for a test to be considered valid, variation between duplicate wells should be no more than about 25%, and negative controls (blanks) for each standard curve should have a mean absorbance of less than about 0.3.
The method disclosed herein for measuring sPLA2 levels in serum was utilized to determine the effect of administering certain sPLA2 inhibitors on sPLA2 levels in 84 human subjects. The subjects included 24 subjects with diabetes, 32 subjects with metabolic syndrome, and 75 subjects receiving statin treatment. Subjects were administered the sPLA2 inhibitor A-002, a prodrug form of A-001, twice a day at varying dosages from 50 to 500 mg. The structures of A-002and A-001 are set forth below. At two weeks and four weeks after the first administration, sPLA2 levels were measured and compared to pre-administration baseline levels.
84 subjects with stable coronary artery disease were randomized to receive placebo or A-002 via oral administration twice a day over a four week administration period. […]

[1] = A-002 (500 mg), non-statin subgroup of ITT population
[2] = A-002 Total (all dose groups), ITT subjects exhibiting at least 3 out of 5 metabolic syndrome criteria
[3] = A-002 Total (all dose groups), non-statin subgroup of ITT population
[4] = Total (all doses), ITT population

For `CCc1c(C(=O)C(N)=O)c2c(OCC(=O)OC)cccc2n1Cc1ccccc1` [A-002, [[3-(2-Amino-1,2-dioxoethyl)-2-ethyl-1-(phenylmethyl)-1H-indol-4-yl]oxy]acetic acid methyl ester], the “sPLA2 level, Week 4, Range” value (A-002 (500 mg), ITT subjects exhibiting at least 3 out of 5 metabolic syndrome criteria) was 0.05 to 0.10 ng/mL, the “sPLA2 level, Baseline, Mean” value [1] was 2.30 ng/mL and the “sPLA2 level, Baseline, Median” value [1] was 2.30 ng/mL. For the same compound, the “sPLA2 level, Baseline, Range” value [1] was 1.80 to 2.80 ng/mL, the “sPLA2 level, Change from baseline at week 2, Mean” value [1] was -2.25 ng/mL and the “sPLA2 level, Change from baseline at week 2, Median” value [1] was -2.25 ng/mL. The “sPLA2 level, Change from baseline at week 2, Range” value [1] was -2.75 to -1.75 ng/mL, the “sPLA2 level, Change from baseline at week 4, Mean” value [1] was -2.08 ng/mL and the “sPLA2 level, Change from baseline at week 4, Median” value [1] was -2.08 ng/mL. For the same compound, the “sPLA2 level, Change from baseline at week 4, Range” value [1] was -2.40 to -1.75 ng/mL, the “sPLA2 level, Week 2, Mean” value [1] was 0.05 ng/mL and the “sPLA2 level, Week 2, Median” value [1] was 0.05 ng/mL. For the same compound, the “sPLA2 level, Week 2, Range” value [1] was 0.05 to 0.05 ng/ml, the “sPLA2 level, Week 4, Mean” value [1] was 0.23 ng/mL and the “sPLA2 level, Week 4, Median” value [1] was 0.23 ng/mL. For the same compound, the “sPLA2 level, Week 4, Range” value [1] was 0.05 to 0.40 ng/mL, the “sPLA2 level, Baseline, Mean” value [2] was 3.17 ng/mL and the “sPLA2 level, Baseline, Median” value [2] was 2.70 ng/mL. The “sPLA2 level, Baseline, Range” value [2] was 0.05 to 8.80 ng/mL, the “sPLA2 level, Change from baseline at week 2, Mean” value [2] was -2.41 ng/mL and the “sPLA2 level, Change from baseline at week 2, Median” value [2] was -2.45 ng/mL. For the same compound, the “sPLA2 level, Change from baseline at week 2, Range” value [2] was −5.30 to +2.85 ng/ml, the “sPLA2 level, Change from baseline at week 4, Mean” value [2] was -2.76 ng/mL and the “sPLA2 level, Change from baseline at week 4, Median” value [2] was -2.30 ng/mL. For the same compound, the “sPLA2 level, Change from baseline at week 4, Range” value [2] was -6.40 to 0.00 ng/mL, the “sPLA2 level, Week 2, Mean” value [2] was 0.65 ng/mL and the “sPLA2 level, Week 2, Median” value [2] was 0.30 ng/mL. For the same compound, the “sPLA2 level, Week 2, Range” value [2] was 0.05 to 4.00 ng/mL, the “sPLA2 level, Week 4, Mean” value [2] was 0.43 ng/mL and the “sPLA2 level, Week 4, Median” value [2] was 0.25 ng/mL. For the same compound, the “sPLA2 level, Week 4, Range” value [2] was 0.05 to 2.40 ng/mL, the “sPLA2 level, Baseline, Mean” value [3] was 2.92 ng/mL and the “sPLA2 level, Baseline, Median” value [3] was 2.80 ng/mL. The “sPLA2 level, Baseline, Range” value [3] was 1.80 to 4.90 ng/mL, the “sPLA2 level, Change from baseline at week 2, Mean” value [3] was -2.13 ng/mL and the “sPLA2 level, Change from baseline at week 2, Median” value [3] was -2.00 ng/mL. For the same compound, the “sPLA2 level, Change from baseline at week 2, Range” value [3] was -2.75 to -1.75 ng/mL, the “sPLA2 level, Change from baseline at week 4, Mean” value [3] was -2.49 ng/mL and the “sPLA2 level, Change from baseline at week 4, Median” value [3] was -2.20 ng/mL. The “sPLA2 level, Change from baseline at week 4, Range” value [3] was -4.40 to -1.70 ng/mL, the “sPLA2 level, Week 2, Mean” value [3] was 0.58 ng/mL and the “sPLA2 level, Week 2, Median” value [3] was 0.48 ng/mL. For the same compound, the “sPLA2 level, Week 2, Range” value [3] was 0.05 to 1.30 ng/mL, the “sPLA2 level, Week 4, Mean” value [3] was 0.65 ng/mL and the “sPLA2 level, Week 4, Median” value [3] was 0.50 ng/mL. The “sPLA2 level, Week 4, Range” value [3] was 0.05 to 1.20 ng/mL, the “serum sPLA2 levels” value (ITT population, stable coronary artery disease, A-002 50, 100, 250 or 500 mg oral twice a day, end of weeks two and four vs baseline, dose-independent) was “decreased serum sPLA2 levels” and the “sPLA2 Change from baseline at week 2, Mean” value [4] was -2.35 ng/mL. The “sPLA2 Change from baseline at week 2, Median” value [4] was -2.40 ng/mL, the “sPLA2 Change from baseline at week 2, Range” value [4] was −5.30 to +2.85 ng/ml and the “sPLA2 Change from baseline at week 4, Mean” value [4] was -2.53 ng/mL. The “sPLA2 Change from baseline at week 4, Median” value [4] was -2.35 ng/mL, the “sPLA2 Change from baseline at week 4, Range” value [4] was -6.40 to 0.20 ng/mL and the “sPLA2 level, Baseline, Mean” value [4] was 2.99 ng/mL. The “sPLA2 level, Baseline, Median” value [4] was 2.70 ng/mL.
